From ChEMBL document CHEMBL4011590, “Structure-activity relationship studies on 3,5-dinitrophenyl tetrazoles as antitubercular agents” (Eur J Med Chem, 2017)
≈ marks a conversion by molar mass, not a printed value.

What was measured:
[1] = tested on: Mycobacterium tuberculosis; experiment: Antimycobacterial activity against Mycobacterium tuberculosis H37Rv CNCTC My 331/88 after 14 days by micromethod; assay type: functional; settings: H37Rv CNCTC My 331/88, 336 h
[2] = tested on: Mycobacterium tuberculosis; experiment: Antimycobacterial activity against Mycobacterium tuberculosis H37Rv CNCTC My 331/88 after 21 days by micromethod; assay type: functional; settings: H37Rv CNCTC My 331/88, 504 h
Mycobacterium avium [3] = experiment: Antimycobacterial activity against Mycobacterium avium CNCTC My 330/80 after 14 days by micromethod; assay type: functional; settings: CNCTC My 330/80, 336 h
Mycobacterium avium [4] = experiment: Antimycobacterial activity against Mycobacterium avium CNCTC My 330/80 after 21 days by micromethod; assay type: functional; settings: CNCTC My 330/80, 504 h
Mycobacterium kansasii [5] = experiment: Antimycobacterial activity against Mycobacterium kansasii CNCTC My 235/80 after 7 days by micromethod; assay type: functional; settings: CNCTC My 235/80, 168 h
Mycobacterium kansasii [6] = experiment: Antimycobacterial activity against Mycobacterium kansasii CNCTC My 235/80 after 14 days by micromethod; assay type: functional; settings: CNCTC My 235/80, 336 h
Mycobacterium kansasii [7] = experiment: Antimycobacterial activity against Mycobacterium kansasii CNCTC My 235/80 after 21 days by micromethod; assay type: functional; settings: CNCTC My 235/80, 504 h
Mycobacterium kansasii [8] = experiment: Antimycobacterial activity against Mycobacterium kansasii isolate 6509/96 after 7 days by micromethod; assay type: functional; settings: isolate 6509/96, 168 h
Mycobacterium kansasii [9] = experiment: Antimycobacterial activity against Mycobacterium kansasii isolate 6509/96 after 14 days by micromethod; assay type: functional; settings: isolate 6509/96, 336 h
Mycobacterium kansasii [10] = experiment: Antimycobacterial activity against Mycobacterium kansasii isolate 6509/96 after 21 days by micromethod; assay type: functional; settings: isolate 6509/96, 504 h
CHO-K1 = experiment: Cytotoxicity against CHOK1 cells after 24 hrs by MTT assay; assay type: cell-based; settings: Cricetulus griseus, CHO-K1, 24 h

Row | SMILES | MIC99 [1] [µM] | MIC99 [2] [µM] | MIC99 (Mycobacterium avium [3]) [µM] | MIC99 (Mycobacterium avium [4]) [µM] | MIC99 (Mycobacterium kansasii [5]) [µM] | MIC99 (Mycobacterium kansasii [6]) [µM] | MIC99 (Mycobacterium kansasii [7]) [µM] | MIC99 (Mycobacterium kansasii [8]) [µM] | MIC99 (Mycobacterium kansasii [9]) [µM] | MIC99 (Mycobacterium kansasii [10]) [µM] | IC50 (CHO-K1) [µM]
1 | O=[N+]([O-])c1cc(-c2nnn(Cc3cc(F)cc(F)c3)n2)cc([N+](=O)[O-])c1 | 0.25 (≈ 0.0906 µg/mL) | 5 (≈ 1.81 µg/mL) | 8 (≈ 2.9 µg/mL) | 16 (≈ 5.8 µg/mL) | 1 (≈ 0.362 µg/mL) | 2 (≈ 0.725 µg/mL) | 4 (≈ 1.45 µg/mL) | 1 (≈ 0.362 µg/mL) | 2 (≈ 0.725 µg/mL) | 4 (≈ 1.45 µg/mL) | 
2 | O=[N+]([O-])c1cc(-c2nnn(Cc3ccc(Cl)c(Cl)c3)n2)cc([N+](=O)[O-])c1 | 0.125 (≈ 0.0494 µg/mL) | 0.125 (≈ 0.0494 µg/mL) | 4 (≈ 1.58 µg/mL) | 8 (≈ 3.16 µg/mL) | 0.25 (≈ 0.0988 µg/mL) | 0.5 (≈ 0.198 µg/mL) | 1 (≈ 0.395 µg/mL) | 0.25 (≈ 0.0988 µg/mL) | 0.5 (≈ 0.198 µg/mL) | 0.5 (≈ 0.198 µg/mL) | 37
3 | O=[N+]([O-])c1cc(Sc2nnnn2C2CCCCC2)cc([N+](=O)[O-])c1 | 1 (≈ 0.35 µg/mL) | 1 (≈ 0.35 µg/mL) | 32 (≈ 11.2 µg/mL) | 32 (≈ 11.2 µg/mL) | 1 (≈ 0.35 µg/mL) | 1 (≈ 0.35 µg/mL) | 1 (≈ 0.35 µg/mL) | 1 (≈ 0.35 µg/mL) | 1 (≈ 0.35 µg/mL) | 1 (≈ 0.35 µg/mL) | 153
4 | COc1ccccc1-n1nnnc1SCn1nnc(-c2cc([N+](=O)[O-])cc([N+](=O)[O-])c2)n1 | 0.25 (≈ 0.114 µg/mL) | 0.25 (≈ 0.114 µg/mL) | 32 (≈ 14.6 µg/mL) | 32 (≈ 14.6 µg/mL) | 32 (≈ 14.6 µg/mL) | 32 (≈ 14.6 µg/mL) | 32 (≈ 14.6 µg/mL) | 32 (≈ 14.6 µg/mL) | 32 (≈ 14.6 µg/mL) | 32 (≈ 14.6 µg/mL) | 
5 | O=[N+]([O-])c1cc(-c2nnn(CCSc3nnnn3-c3ccc(Cl)c(Cl)c3)n2)cc([N+](=O)[O-])c1 | 0.25 (≈ 0.127 µg/mL) | 0.25 (≈ 0.127 µg/mL) | 2 (≈ 1.02 µg/mL) | 4 (≈ 2.04 µg/mL) | 0.25 (≈ 0.127 µg/mL) | 0.5 (≈ 0.255 µg/mL) | 1 (≈ 0.509 µg/mL) | 0.5 (≈ 0.255 µg/mL) | 1 (≈ 0.509 µg/mL) | 1 (≈ 0.509 µg/mL) | 
6 | O=[N+]([O-])c1cc(-c2nnn(Cc3ccc(F)c(F)c3)n2)cc([N+](=O)[O-])c1 | 0.25 (≈ 0.0906 µg/mL) | 0.5 (≈ 0.181 µg/mL) | 4 (≈ 1.45 µg/mL) | 8 (≈ 2.9 µg/mL) | 1 (≈ 0.362 µg/mL) | 2 (≈ 0.725 µg/mL) | 4 (≈ 1.45 µg/mL) | 1 (≈ 0.362 µg/mL) | 2 (≈ 0.725 µg/mL) | 2 (≈ 0.725 µg/mL) | 
7 | COc1ccc(-n2nnnc2Sc2cc([N+](=O)[O-])cc([N+](=O)[O-])c2)cc1 | 1 (≈ 0.374 µg/mL) | 1 (≈ 0.374 µg/mL) | 8 (≈ 2.99 µg/mL) | 16 (≈ 5.99 µg/mL) | 2 (≈ 0.749 µg/mL) | 4 (≈ 1.5 µg/mL) | 4 (≈ 1.5 µg/mL) | 2 (≈ 0.749 µg/mL) | 4 (≈ 1.5 µg/mL) | 4 (≈ 1.5 µg/mL) | 
8 | CO[C@H]1/C=C/O[C@@]2(C)Oc3c(C)c(O)c4c(O)c(c(/C=N/N5CCN(C)CC5)c(O)c4c3C2=O)NC(=O)/C(C)=C\C=C\[C@H](C)[C@H](O)[C@@H](C)[C@@H](O)[C@@H](C)[C@H](OC(C)=O)[C@@H]1C [RIFAMPIN] | 0.25 (≈ 0.206 µg/mL) |  | 32 (≈ 26.3 µg/mL) |  |  | 0.25 (≈ 0.206 µg/mL) |  |  | 0.125 (≈ 0.103 µg/mL) |  | 
9 | O=[N+]([O-])c1cc(-c2nnn(CCCSc3nnnn3-c3ccc(Br)cc3)n2)cc([N+](=O)[O-])c1 | 0.5 (≈ 0.267 µg/mL) | 0.5 (≈ 0.267 µg/mL) | 1 (≈ 0.533 µg/mL) | 2 (≈ 1.07 µg/mL) | 0.5 (≈ 0.267 µg/mL) | 1 (≈ 0.533 µg/mL) | 2 (≈ 1.07 µg/mL) | 0.5 (≈ 0.267 µg/mL) | 1 (≈ 0.533 µg/mL) | 1 (≈ 0.533 µg/mL) | 
10 | O=[N+]([O-])c1cc(-c2nnnn2Cc2ccc(Cl)cc2)cc([N+](=O)[O-])c1 | 4 (≈ 1.44 µg/mL) | 4 (≈ 1.44 µg/mL) | 16 (≈ 5.77 µg/mL) | 16 (≈ 5.77 µg/mL) | 8 (≈ 2.89 µg/mL) | 16 (≈ 5.77 µg/mL) | 16 (≈ 5.77 µg/mL) | 4 (≈ 1.44 µg/mL) | 8 (≈ 2.89 µg/mL) | 8 (≈ 2.89 µg/mL) | 
11 | CCCCCCCCCCCCCCCCn1nnnc1SCn1nnc(-c2cc([N+](=O)[O-])cc([N+](=O)[O-])c2)n1 | 4 (≈ 2.3 µg/mL) | 8 (≈ 4.6 µg/mL) | 125 (≈ 71.8 µg/mL) | 250 (≈ 144 µg/mL) | 16 (≈ 9.2 µg/mL) | 32 (≈ 18.4 µg/mL) | 32 (≈ 18.4 µg/mL) | 8 (≈ 4.6 µg/mL) | 16 (≈ 9.2 µg/mL) | 32 (≈ 18.4 µg/mL) | 
12 | COc1ccccc1-n1nnnc1Sc1cc([N+](=O)[O-])cc([N+](=O)[O-])c1 | 4 (≈ 1.5 µg/mL) | 8 (≈ 2.99 µg/mL) | 16 (≈ 5.99 µg/mL) | 32 (≈ 12 µg/mL) | 16 (≈ 5.99 µg/mL) | 32 (≈ 12 µg/mL) | 62.5 (≈ 23.4 µg/mL) | 8 (≈ 2.99 µg/mL) | 32 (≈ 12 µg/mL) | 32 (≈ 12 µg/mL) | 
13 | O=[N+]([O-])c1cc(-c2nnn(Cc3cccc(F)c3)n2)cc([N+](=O)[O-])c1 | 1 (≈ 0.344 µg/mL) | 1 (≈ 0.344 µg/mL) | 8 (≈ 2.75 µg/mL) | 16 (≈ 5.51 µg/mL) | 1 (≈ 0.344 µg/mL) | 2 (≈ 0.689 µg/mL) | 2 (≈ 0.689 µg/mL) | 0.5 (≈ 0.172 µg/mL) | 1 (≈ 0.344 µg/mL) | 2 (≈ 0.689 µg/mL) | 315
